Among the data in patent US20090099158A1, “TETRAHYDROISOQUINOLINE COMPOUNDS AS MODULATORS OF THE HISTAMINE H3 RECEPTOR” (priority 2007, published 2009) are Ki values, retold here.

For the assay, the target named is T1, cloned human H3 receptors (Homo sapiens, UniProt Q9Y5N1).
T1 construct: expressed in transfected cells; host or cells: SK-N-MC cells
Description: H3 Receptor Binding (Human). The conditions noted are these: cloned human H3 receptors stably expressed in SK-N-MC cells; average of the results obtained. The procedure: Binding of compounds to the cloned human H3 receptors, stably expressed in SK-N-MC cells, was performed as described by Barbier, A. J. et al. (Br. J. Pharmacol. 2004, 143(5), 649-661). Data for compounds tested in this assay are presented in Table 1 as an average of the results obtained.

T1 sequence (Q9Y5N1 whole entry): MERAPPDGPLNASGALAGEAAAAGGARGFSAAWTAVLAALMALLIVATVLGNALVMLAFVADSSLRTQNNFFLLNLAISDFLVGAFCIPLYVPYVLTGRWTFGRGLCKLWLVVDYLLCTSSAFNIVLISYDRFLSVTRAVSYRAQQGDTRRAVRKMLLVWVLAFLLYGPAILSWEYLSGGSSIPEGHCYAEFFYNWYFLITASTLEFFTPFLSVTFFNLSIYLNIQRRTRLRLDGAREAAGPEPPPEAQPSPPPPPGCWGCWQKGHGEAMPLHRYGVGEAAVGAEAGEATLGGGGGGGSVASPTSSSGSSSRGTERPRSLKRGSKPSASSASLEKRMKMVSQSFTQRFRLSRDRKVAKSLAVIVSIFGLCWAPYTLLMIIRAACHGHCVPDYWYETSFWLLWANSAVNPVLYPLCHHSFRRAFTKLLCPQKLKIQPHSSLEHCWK

In turn, `CC(C)N1CCCN(C(=O)c2ccc3c(c2)CCN(C(=O)OC(C)(C)C)C3)CC1` [Example 1, 6-(4-Isopropyl-[1,4]diazepane-1-carbonyl)-3,4-dihydro-1H-isoquinoline-2-carboxylic acid tert-butyl ester] came in with a Ki of 8 nM. This lies in the single-digit nanomolar range.
As to `CC(C)(C)OC(=O)N1CCc2cc(C(=O)N3CCN(C4CCCC4)CC3)ccc2C1` [Example 2, 6-(4-Cyclopentyl-piperazine-1-carbonyl)-3,4-dihydro-1H-isoquinoline-2-carboxylic acid tert-butyl ester], the Ki is 230 nM.
The figure for `CC(C)(C)OC(=O)N1CCc2cc(C(=O)N3CCN(C4CCCCC4)CC3)ccc2C1` [Example 3, 6-(4-Cyclohexyl-piperazine-1-carbonyl)-3,4-dihydro-1H-isoquinoline-2-carboxylic acid tert-butyl ester] is 165 nM; for `CC(C)(C)OC(=O)N1CCc2cc(C(=O)N3CCN4CCCCC4C3)ccc2C1` (stereo not drawn) [Example 4, 6-(Octahydro-pyrido[1,2-a]pyrazine-2-carbonyl)-3,4-dihydro-1H-isoquinoline-2-carboxylic acid tert-butyl ester] it is 28 nM.
The figure for `O=C(c1ccc2c(c1)CCNC2)N1CCCCC1` [Example 6, Piperidin-1-yl-(1,2,3,4-tetrahydro-isoquinolin-6-yl)-methanone] is 3000 nM; for `O=C(c1ccc2c(c1)CCNC2)N1CCOCC1` [Example 7, Morpholin-4-yl-(1,2,3,4-tetrahydro-isoquinolin-6-yl)-methanone] it is 4000 nM; for `O=C(c1ccc2c(c1)CCNC2)N1CCN(C2CCCC2)CC1` [Example 8, (4-Cyclopentyl-piperazin-1-yl)-(1,2,3,4-tetrahydro-isoquinolin-6-yl)-methanone] it is 11 nM.
The figure for `O=C(c1ccc2c(c1)CCNC2)N1CCN(C2CCCCC2)CC1` [Example 9, (4-Cyclohexyl-piperazin-1-yl)-(1,2,3,4-tetrahydro-isoquinolin-6-yl)-methanone] is 14 nM.
Turning to `O=C(c1ccc2c(c1)CCNC2)N1CCN2CCCCC2C1` (stereo not drawn) [Example 10, (Octahydro-pyrido[1,2-a]pyrazin-2-yl)-(1,2,3,4-tetrahydro-isoquinolin-6-yl)-methanone], affinity was put at a Ki of 16 nM.
In turn, `O=C(c1ccc2c(c1)CCN(Cc1ccccc1)C2)N1CCCCC1` [Example 12, (2-Benzyl-1,2,3,4-tetrahydro-isoquinolin-6-yl)-piperidin-1-yl-methanone] had a Ki of 7000 nM.
The figure for `O=C(c1ccc2c(c1)CCN(Cc1ccccc1)C2)N1CCOCC1` [Example 13, (2-Benzyl-1,2,3,4-tetrahydro-isoquinolin-6-yl)-morpholin-4-yl-methanone] is over 10000 nM; for `O=C(c1ccc2c(c1)CCN(Cc1ccc(C(F)(F)F)cc1)C2)N1CCN(C2CCC2)CC1` [Example 14, (4-Cyclobutyl-piperazin-1-yl)-[2-(4-trifluoromethyl-benzyl)-1,2,3,4-tetrahydro-isoquinolin-6-yl]-methanone] it is 20 nM; for `O=C(c1ccc2c(c1)CCN(Cc1ccc(Cl)c(Cl)c1)C2)N1CCN(C2CCC2)CC1` [Example 16, (4-Cyclobutyl-piperazin-1-yl)-[2-(3,4-dichloro-benzyl)-1,2,3,4-tetrahydro-isoquinolin-6-yl]-methanone] it is 18 nM.
`O=C(c1ccc2c(c1)CCN(Cc1ccc(Cl)cc1)C2)N1CCN(C2CCC2)CC1` [Example 17, [2-(4-Chloro-benzyl)-1,2,3,4-tetrahydro-isoquinolin-6-yl]-(4-cyclobutyl-piperazin-1-yl)-methanone]: the Ki was determined as 15 nM.
The figure for `CC(C)N1CCN(C(=O)c2ccc3c(c2)CCN(Cc2ccc(Cl)c(Cl)c2)C3)CC1` [Example 19, [2-(3,4-Dichloro-benzyl)-1,2,3,4-tetrahydro-isoquinolin-6-yl]-(4-isopropyl-piperazin-1-yl)-methanone] is 29 nM; for `CC(C)N1CCN(C(=O)c2ccc3c(c2)CCN(Cc2ccc(C(F)(F)F)cc2)C3)CC1` [Example 20, (4-Isopropyl-piperazin-1-yl)-[2-(4-trifluoromethyl-benzyl)-1,2,3,4-tetrahydro-isoquinolin-6-yl]-methanone] it is 19 nM.
Under `CC(C)N1CCN(C(=O)c2ccc3c(c2)CCN(Cc2ccccc2)C3)CC1` [Example 21, (2-Benzyl-1,2,34-tetrahydro-isoquinolin-6-yl)-(4-isopropyl-piperazin-1-yl)-methanone] stands 28 nM.
The compound `O=C(c1ccc2c(c1)CCN(Cc1ccc(C(F)(F)F)cc1)C2)N1CCN(C2CC2)CC1` [Example 23, (4-Cyclopropyl-piperazin-1-yl)-[2-(4-trifluoromethyl-benzyl)-1,2,3,4-tetrahydro-isoquinolin-6-yl]-methanone] gave a Ki of 114 nM.
The figure for `O=C(c1ccc2c(c1)CCN(Cc1ccc(Cl)cc1)C2)N1CCN(C2CC2)CC1` [Example 24, [2-(4-Chloro-benzyl)-1,2,3,4-tetrahydro-isoquinolin-6-yl]-(4-cyclopropyl-piperazin-1-yl)-methanone] is 75 nM; for `N#Cc1ccc(CN2CCc3cc(C(=O)N4CCN(C5CCC5)CC4)ccc3C2)cc1` [Example 25, 4-[6-(4-Cyclobutyl-piperazine-1-carbonyl)-3,4-dihydro-1H-isoquinolin-2-ylmethyl]-benzonitrile] it is 15 nM; for `CC(C)N1CCN(C(=O)c2ccc3c(c2)CCN(C(=O)c2ccccc2)C3)CC1` [Example 28, (2-Benzoyl-1,2,3,4-tetrahydro-isoquinolin-6-yl)-(4-isopropyl-piperazin-1-yl)-methanone] it is 16 nM.
Under `CC(=O)N1CCc2cc(C(=O)N3CCN(C(C)C)CC3)ccc2C1` [Example 29, 1-[6-(4-Isopropyl-piperazine-1-carbonyl)-3,4-dihydro-1H-isoquinolin-2-yl]-ethanone] stands 80 nM; under `CC(=O)N1CCc2cc(C(=O)N3CCN(C4CCC4)CC3)ccc2C1` [Example 30, 1-[6-(4-Cyclobutyl-piperazine-1-carbonyl)-3,4-dihydro-1H-isoquinolin-2-yl]-ethanone], 36 nM; under `O=C(c1ccc2c(c1)CCN(C(=O)C1CCC1)C2)N1CCN(C2CCC2)CC1` [Example 31, Cyclobutyl-[6-(4-cyclobutyl-piperazine-1-carbonyl)-3,4-dihydro-1H-isoquinolin-2-yl]-methanone], 87 nM.
Compound `O=C(c1ccc2c(c1)CCN(C(=O)C1CC1)C2)N1CCN(C2CCC2)CC1` [Example 34, [6-(4-Cyclobutyl-piperazine-1-carbonyl)-3,4-dihydro-1H-isoquinolin-2-yl]-cyclopropyl-methanone] registered a Ki of 14 nM.
Under `O=C(c1ccc2c(c1)CN(C(=O)C1CCCC1)CC2)N1CCCN(C2CCC2)CC1` [Example 37, [7-(4-Cyclobutyl-[1,4]diazepane-1-carbonyl)-3,4-dihydro-1H-isoquinolin-2-yl]-cyclopentyl-methanone] stands 1 nM.
The figure for `O=C(c1ccc2c(c1)CN(C(=O)C1CCCCC1)CC2)N1CCCN(C2CCC2)CC1` [Example 38, [7-(4-Cyclobutyl-[1,4]diazepane-1-carbonyl)-3,4-dihydro-1H-isoquinolin-2-yl]-cyclohexyl-methanone] is 1 nM.

As usually defined, the Ki is the dissociation constant of the complex between target and ligand, obtained from inhibition or displacement. A higher Ki goes with lower affinity.
